Measurements taken from patent US11365186B2, “Substituted benzimidazoles, their preparation and their use as pharmaceuticals” (Epigenetix, Inc., priority 2015, dated 2022).
pIC50: −log10 of the molar value.

System: human C-Myc transcription in MV-4-11 cells
Test: Transcription of human C-Myc in human leukemic MV-4-11 cells (QuantiGene 2.0)
Assay type: cell-based
Settings: inhibition of C-Myc mRNA transcription, 4 hours treatment, read-out: IC50 MV-4-11 Cell
Procedure: b) Transcription of Human C-Myc in Human Leukemic MV-4-11 Cells:
The effect of compounds on transcription of human C-Myc gene is monitored in human B-myelomonocytic leukemia cell line MV-4-11 (from American Type Culture Collection (ATCC), Manassas, Va., USA) using QuantiGene 2.0 assay kit (Affymetrix, Santa Clara, Calif., USA).
Typically, 8,000 MV-4-11 cells are plated in sterile 96-well plates (Costar #3598 from Fisher Scientific Canada, Ottawa, Ontario, Canada) in Iscove's medium supplemented with 10% fetal bovine serum, glutamine (2 mM), and penicillin (100 I.U.) and streptomycin (100 μg/mL) (all from Wisent Inc., St. Bruno, Quebec, Canada). Compounds are dissolved in DMSO at 30 mM. A series of 1:3 dilutions are first made in DMSO, and further […] dilutions are made in serum-containing cell culture media. The final concentration of DMSO is 0.1% in cell culture media. After cells are treated with various concentrations of test compound for 4 hours, cells are lysed using Quantigene 2.0 sample processing kit (#QS0100). C-Myc mRNA is detected using a QuantiGene 2.0 assay kit (#QS0009) with gene-specific probe to human C-Myc (#SA-50182) following the manufacturer's recommendations. Luminescence signals are read on Flexstation II microplate reader (Molecular Devices, Sunnyvale, Calif., USA).

## COC1CC(c2nc3ccc(-c4cc(C)c(=O)n(C)c4)cc3n2CCOCC(F)(F)F)C1 (stereo not shown) [Compound 63, 5-[2-(3-methoxycyclobutyl)-1-(2-(2,2,2-trifluoroethoxy)ethyl)-1H-benzo[d]imidazol-6-yl]-1,3-dimethylpyridin-2(1H)-one]
  pIC50: 7.77
